Source: patent US12410148B2, “Antibody drug conjugates” (Pharma Mar, S.A., priority 2013, dated 2025)
Converted amounts (≈) assume the structure as drawn. “And” between values parts separate entries of the source, which are not always exact repeats. Equal values may be shown once. Read-outs that look alike come from different tables or passages of the source.

Legend:
[1] = system: BT-474 cells; test: In vitro cytotoxicity, SRB assay, 72 h dose-response; assay type: cell-based; details: Homo sapiens
Description: (§1) Nature Protocols, 1, 1112-1 116.

[2] = system: HCC-1954 cells; test: as above; assay type: cell-based; details: Homo sapiens, HCC1954, 72 h
Description: as §1

[3] = system: SK-OV-3 cells; test: as above; assay type: cell-based; details: Homo sapiens
Description: as §1

[4] = system: SK-BR-3 cells; test: as above; assay type: cell-based; details: Homo sapiens, SK-BR-3, 72 h
Description: All tumor cell lines used in this study were obtained from the American Type Culture Collection (ATCC), unless otherwise indicated; BT-474 (ATCC HTB-20, Breast Ductal Carcinoma), SK-BR-3 (ATCC HTB-30, Breast Adenocarcinoma) and HCC-1954 (ATCC CRL-2338, Breast Ductal Carcinoma), all HER2+; MDA-MB-231 (ATCC HTB-26, Breast Adenocarcinoma) and MCF-7 (ATCC HTB-22 Breast Adenocarcinoma, pleural effusion), all HER2-; SK-OV-3 (ATCC HTB-77, Ovary Adenocarcinoma), HER2+; NB-4 (Acute Promyelocytic Leukemia, APL, CD13+, M. Lanotte et al. (1991) NB4, a maturation inducible cell line with t(15;17) marker isolated from a human acute promyelocytic leukemia (M3). […] Cells were maintained at 37° C., 5% CO 2 and 95% humidity in Dulbecco's Modified Eagle's Medium (DMEM) (for MCF and MDA-MB-231 cells), RPMI-1640 (for SK-BR-3, HCC-1954, NB-4, U937, Raji, RPMI-8226, Karpas-299, MOLT-4, Raji-clone #10 and Raji-clone #18 cells), RPMI-1640+1% ITS (for BT-474 cells) or McCOyS (for SK-OV-3 cells), all media supplemented with 10% Fetal Calf Serum (FCS) and 100 units/mL penicillin and streptomycin.
For adherent cells: A colorimetric assay using sulforhodamine B (SRB) was adapted for quantitative measurement of cell growth and cytotoxicity, as described in V. Vichai and K. Kirtikara (2006) Sulforhodamine B colorimetric assay for cytotoxicity screening. […] Briefly, cells were seeded in 96-well microtiter plates and allowed to stand for 24 hours in drug-free medium before treatment with vehicle alone or the indicated compounds for 72 hours. For quantification, cells were washed twice with phosphate buffered saline (PBS), fixed for 15 min in 1% glutaraldehyde solution, rinsed twice with PBS, stained in 0.4% SRB-1% acetic acid solution for 30 min, rinsed several times with 1% acetic acid solution and air-dried. SRB was then extracted in 10 mM trizma base solution and the optical density measured at 490 nm in a microplate spectrophotometer. Cell survival was expressed as percentage of control, untreated cell survival.

[5] = system: BT-474, HCC-1954, SK-BR-3, MDA-MB-231, MCF-7 and SK-OV-3 cells; test: In vitro cytotoxicity, whole cell panel of Bioactivity Example 1; assay type: cell-based; details: Homo sapiens
Description: (§2) All tumor cell lines used in this study were obtained from the American Type Culture Collection (ATCC), unless otherwise indicated; BT-474 (ATCC HTB-20, Breast Ductal Carcinoma), SK-BR-3 (ATCC HTB-30, Breast Adenocarcinoma) and HCC-1954 (ATCC CRL-2338, Breast Ductal Carcinoma), all HER2+; MDA-MB-231 (ATCC HTB-26, Breast Adenocarcinoma) and MCF-7 (ATCC HTB-22 Breast Adenocarcinoma, pleural effusion), all HER2-; SK-OV-3 (ATCC HTB-77, Ovary Adenocarcinoma), HER2+; NB-4 (Acute Promyelocytic Leukemia, APL, CD13+, M. Lanotte et al. (1991) NB4, a maturation inducible cell line with t(15;17) marker isolated from a human acute promyelocytic leukemia (M3). Blood 77, 1080-1086), (CD13+) and U937 (ATCC CRL-1 593.2, Histiocytic Lymphoma, CD13+ and CD4+); Raji (ATCC CCL-86, Burkitt's Lymphoma) (CD13−, CD20+, CD5−, and CD4−); RPMI-8226 (ATCC CRM-CCL-155, Multiple Myeloma) (CD13−, CD20−, CD5− and CD4−); Karpas-299 (DSMZ ACC-31, Non-Hodgkin's Lymphoma) (CD20−, CD5+, and CD4+); MOLT-4 (ATCC CRL-1 582, Acute Lymphoblastic Leukemia, CD5+). In addition, the two Raji cell (ATCC CCL-86, Burkitt's Lymphoma) clones used in this study Raji-clone #10 (high CD5 expression) and Raji-clone18 (null CD5 expression), were provided by Dr. Juan M. Zapata (Instituto de Investigaciones Biomedicas “Alberto Sols”, CSIC-UAM, Madrid, Spain). Cells were maintained at 37° C., 5% CO 2 and 95% humidity in Dulbecco's Modified Eagle's Medium (DMEM) (for MCF and MDA-MB-231 cells), RPMI-1640 (for SK-BR-3, HCC-1954, NB-4, U937, Raji, RPMI-8226, Karpas-299, MOLT-4, Raji-clone #10 and Raji-clone #18 cells), RPMI-1640+1% ITS (for BT-474 cells) or McCOyS (for SK-OV-3 cells), all media supplemented with 10% Fetal Calf Serum (FCS) and 100 units/mL penicillin and streptomycin.
For adherent cells: A colorimetric assay using sulforhodamine B (SRB) was adapted for quantitative measurement of cell growth and cytotoxicity, as described in V. Vichai and K. Kirtikara (2006) Sulforhodamine B colorimetric assay for cytotoxicity screening. Nature Protocols, 1, 1112-1 116. Briefly, cells were seeded in 96-well microtiter plates and allowed to stand for 24 hours in drug-free medium before treatment with vehicle alone or the indicated compounds for 72 hours. For quantification, cells were washed twice with phosphate buffered saline (PBS), fixed for 15 min in 1% glutaraldehyde solution, rinsed twice with PBS, stained in 0.4% SRB-1% acetic acid solution for 30 min, rinsed several times with 1% acetic acid solution and air-dried. SRB was then extracted in 10 mM trizma base solution and the optical density measured at 490 nm in a microplate spectrophotometer. Cell survival was expressed as percentage of control, untreated cell survival. […]

[6] = system: Karpas-299, U937, Raji and RPMI-8226 cells; test: In vitro cytotoxicity, whole CD4 cell panel; details: Homo sapiens
Description: as §2
For suspension cells: A standard metabolic assay using MTT (3-(4,5-Dimethylthiazol-2-yl)-2,5-diphenyltetrazolium bromide) was adapted for quantitative measurement of cell growth and cytotoxicity, as described in T. Mosmann (1983) Rapid colorimetric assay for cellular growth and survival: Application to proliferation and cytotoxicity assays. J. Immunol. Meth., 65, 55-63. Briefly, MTT solution was added to the cell cultures at a final concentration of 0.5 mg/mL, and incubated for 1 to 4 hours at 37° C. until formazan crystals are formed. Culture medium is carefully removed from the cell cultures and formazan crystals resuspended in 100 μl DMSO. After mixing to assure solubilization, the quantity of formazan (presumably directly proportional to the number of viable cells) is measured by recording changes in absorbance at 570 nm using a plate reading spectrophotometer. Cell survival was expressed as percentage of control, untreated cell survival.
(§3) The IC50 value refers to the concentration of compound inducing a 50% of cell death as compared to the control cell survival.
The in vitro cytotoxic activity of ADC16 along with the parent cytotoxic Compounds 1, 4, and 40, was evaluated against different human cancer cell lines expressing or not the CD4 antigen, including Karpas-299 and U937 (both CD4+); Raji and RPMI-8226 (both CD4−). Standard dose-response (DR) curves for 72 hours were performed.

[7] = system: Raji cell clones #10 (high CD5) and #18 (null CD5); test: In vitro cytotoxicity, the two Raji cell clones; assay type: cell-based, human; details: from mean IC50
Method: J. Immunol. Meth., 65, 55-63.
[…] dose-response (DR) curves for 72 hours were performed.

[8] = system: Raji cells; test: In vitro cytotoxicity, MTT assay, 72 h dose-response; assay type: cell-based, human; details: CD13−, CD20+, CD5−, CD4−
Method: Briefly, MTT solution was added to the cell cultures at a final concentration of 0.5 mg/mL, and incubated for 1 to 4 hours at 37° C. until formazan crystals are formed. Culture medium is carefully removed from the cell cultures and formazan crystals resuspended in 100 μl DMSO. […] Cell survival was expressed as percentage of control, untreated cell survival.

[9] = system: HCC-1954, SK-BR-3, MDA-MB-231 and MCF-7 cells; test: In vitro cytotoxicity, whole breast cancer cell panel
Description: as §2
For adherent cells: A colorimetric assay using sulforhodamine B (SRB) was adapted for quantitative measurement of cell growth and cytotoxicity, as described in V. Vichai and K. Kirtikara (2006) Sulforhodamine B colorimetric assay for cytotoxicity screening. Nature Protocols, 1, 1112-1 116. Briefly, cells were seeded in 96-well microtiter plates and allowed to stand for 24 hours in drug-free medium before treatment with vehicle alone or the indicated compounds for 72 hours. For quantification, cells were washed twice with phosphate buffered saline (PBS), fixed for 15 min in 1% glutaraldehyde solution, rinsed twice with PBS, stained in 0.4% SRB-1% acetic acid solution for 30 min, rinsed several times with 1% acetic acid solution and air-dried. SRB was then extracted in 10 mM trizma base solution and the optical density measured at 490 nm in a microplate spectrophotometer. Cell survival was expressed as percentage of control, untreated cell survival.
as §3
Standard dose-response (DR) curves for 72 hours were performed.

[10] = read-out: mean IC50 value across the whole cell panel
[11] = read-out: IC50 values across the different cell lines tested (range)

SMILES: COC1=CC[C@@H]([C@@H](C)/C=C(C)/C=C\C=C/C(=O)N[C@H](C(=O)N/C=C\C[C@H](C/C=C(\C)Cl)OC(=O)NCCCNC(=O)CCCCCN2C(=O)C=CC2=O)C(C)(C)C)OC1=O [Compound 1]
- IC50 ([1]; BT-474, 72 h): 0.0064 µg/mL and 7.47 nM
- IC50 ([2]; HER2+, 72 h, read-out: IC50): 0.00096 µg/mL and 1.12 nM
- IC50 ([3]; SK-OV-3, 72 h): 0.0057 µg/mL and 6.66 nM
- IC50 ([4]; HER2+, 72 h, read-out: IC50): 0.00089 µg/mL and 1.04 nM
- IC50 ([5]; read-out: IC50 values along the different cell lines tested (range)): 0.00089 µg/mL to 0.0064 µg/mL and 1.04 nM to 7.47 nM
- IC50 [5, 10]: 0.00341 µg/mL and 3.98 nM
- IC50 [6, 11]: 0.0015 µg/mL to 0.0073 µg/mL and 1.7 nM to 8.6 nM
- IC50 [6, 10]: 0.0034 µg/mL and 3.9 nM
- more active in CD5 overexpressing cells (clone #10) than in CD5 null cells (clone #18) [7]: around 1 log

SMILES: COC1=CC[C@@H]([C@@H](C)/C=C(C)/C=C\C=C/C(=O)N[C@H](C(=O)N/C=C\C[C@H](C/C=C(\C)Cl)OC(=O)NCCCN)C(C)(C)C)OC1=O [Compound 4]
- IC50 ([1]; BT-474, HER2+, 72 h, read-out: IC50): 0.00174 µg/mL and 2.62 nM
- IC50 ([3]; SK-OV-3, ovary, HER2+, 72 h, read-out: IC50): 0.00073 µg/mL and 1.1 nM
- IC50 [8]: 0.00141 µg/mL
- IC50 ([8]; read-out: IC50): 2.12 nM
- IC50 ([8]; Homo sapiens, Raji, read-out: IC50): 0.00265 µg/mL and 4 nM
- IC50 ([5]; six cell lines, read-out: mean IC50 value across the whole cell panel): 0.000569 µg/mL and 0.857 nM
- IC50 ([5]; six cell lines, two independent experiments, read-out: IC50 values along the different cell lines tested (range)): 0.089 to 1.7 ng/mL (≈ 0.134 to 2.56 nM)
- IC50 [6, 11]: 0.00061 µg/mL to 0.0027 µg/mL and 0.92 nM to 4.1 nM
- IC50 [6, 10]: 0.0012 µg/mL and 1.8 nM
- IC50 ([9]; Homo sapiens, read-out: mean IC50 value across the whole cell panel, four breast cell lines): 0.000197 µg/mL and 0.296 nM
- mean IC50 value across the whole cell panel ([9]; four breast cell lines): 0.33 ng/mL
- IC50 ([9]; read-out: mean IC50 value across the whole cell panel, four breast cell lines): 0.498 nM

SMILES: COC1=CC[C@@H]([C@@H](C)/C=C(C)/C=C\C=C/C(=O)N[C@H](C(=O)N/C=C\C[C@H](C/C=C(\C)Cl)OC(N)=O)C(C)(C)C)OC1=O [Compound 40]
- IC50 [2]: 7.1e-05 µg/mL and 0.116 nM
- IC50 [4]: 4.9e-05 µg/mL and 0.081 nM
- IC50 [8]: 0.000115 µg/mL and 0.000285 µg/mL
- IC50 ([8]; read-out: IC50): 0.19 nM and 0.47 nM
- IC50 [6, 11]: 0.13 nM to 0.47 nM and 7.9e-05 µg/mL to 0.00028 µg/mL
- IC50 [6, 10]: 0.00015 µg/mL and 0.25 nM
- IC50 ([9]; Homo sapiens, read-out: IC50 values along the different cell lines tested (range)): 0.049 to 0.173 ng/mL
- IC50 ([9]; Homo sapiens, read-out: mean IC50 value across the whole cell panel): 0.000106 µg/mL and 0.175 nM
